Assays:
[1] = test system: T. cruzi; set-up: method as in PMID 24827034, PMID 29352704; settings: clinical trials; cited from earlier work
[2] = test system: intracellular T. cruzi; assay: T. cruzi washout assay; format: cell-based, Trypanosoma cruzi; settings: 25 x IC50 for 16 days, infected Vero cells
Experimental: For any hits identified and successfully triaged, the initial focus of hit-expansion is to identify compounds with a suitable profile to run in a washout assay.,[21] In this assay, intracellular T. cruzi are treated with high doses of compounds for an extended duration (25x IC50 for 8 – 16 days), followed by compound washout and assessment of parasite relapse over 60 days to assess ability to clear all parasites, including any persisters. […] Compound series with a profile equal to or better than benznidazole can then be progressed to an in vivo efficacy model of chronic Chagas disease with a high probability of success.
At this stage, we were keen to examine our options for progression into the T. cruzi washout assay, [12],[21] and decided to move forward with 2, 14 and 16 to give coverage across both chemotypes. […] After this dosing period, the compound was washed off the infected cells, and the host cell monolayer was monitored for egressed parasites. The first day egressed parasites were detected post washout was noted down as the relapse day. In this assay, posaconazole, which is known to be ineffective in the clinic, relapsed after 10 days and benznidazole, used as the bench-mark clinical compound, relapsed after 31 / 35 days (2 replicates). We were therefore looking for compounds that relapsed at an equivalent time to benznidazole, or later, to be considered worth pursuing further.
Intracellular T. cruzi washout assays were carried out with the Silvio X10/7 strain using the protocol previously described. ^1

[3] = test system: T. cruzi trypomastigotes; set-up: method as in PMID 30001347; settings: cited from earlier work

Question: What does the source list for `CC[C@@H]([C@H](C)O)n1ncn(-c2ccc(N3CCN(c4ccc(OC[C@@H]5CO[C@@](Cn6cncn6)(c6ccc(F)cc6F)C5)cc4)CC3)cc2)c1=O` [posaconazole]?
Answer: treatment failures in patients [1]: 70 – 90%; relapse day post washout [2]: 10 days; activity against trypomastigotes [3]: only very weakly active
